A word on the Ki: it is the equilibrium dissociation constant of an inhibitor or competing ligand from its target.

The text below walks through data of patent US9493411B2 (AbbVie Inc., priority 2013, dated 2016).

Assay [1] relates to breast cancer cell line MX-1. As to the kind of experiment: MX-1 cell line proliferation assay. The conditions noted are these: Homo sapiens, MX1, 72 h, MX-1 cells, 3-day proliferation assay, Cell Titer Glo; read-out: Cellular proliferation: EC50. It is filed as cell-based. On the procedure:
The impact of compounds of the Examples on cancer cell proliferation was determined using the breast cancer cell line MX-1 (ATCC) in a 3-day proliferation assay and the data are reported in Table 1. MX-1 cells were maintained in RPMI 1640 medium (Sigma) supplemented with 10% FBS at 37° C. and an atmosphere of 5% CO2. For compound testing, MX-1 cells were plated in 96-well black bottom plates at a density of 5000 cells/well in 90 μL of culture media and incubated at 37° overnight to allow cell adhesion and spreading. Compound dilution series were prepared in DMSO via a 3-fold serial dilution from 3 mM to 0.1 μM. The DMSO dilution series were then diluted 1:100 in phosphate buffered saline, and 10 μL of the resulted solution were added to the appropriate wells of the MX-1 cell plate. The final compound concentrations in the wells were 3, 1, 0.3, 0.1, 0.03, 0.01, 0.003, 0.001, 0.0003 and 0.0001 μM.
Luminescence readings from the Cell Titer Glo assay were normalized to the DMSO treated cells and analyzed using the GraphPad Prism software with sigmoidal curve fitting to obtain EC50s. The minimum significant ratio (MSR) was determined to evaluate assay reproducibility (Eastwood et al., (2006) J Biomol Screen, 11: 253-261).
Background: ATP-based viability assays read luminescence as a measure of living cells.

In assay [2] the target is T1, BRD4 (BDI_K57-E168) (Homo sapiens, UniProt O60885).
T1 construct: BD1: amino acids K57-E168; made in house
As to the kind of experiment: TR-FRET bromodomain binding assay, BRD4 first bromodomain. The conditions noted are these: His-tagged BD1, Alexa647-labeled probe 100 nM; Ki calculated from IC50. A digest of the protocol: (§1)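 His-tagged BRD4 BD1 (K57-E168) or BD2 at 8 nM, 1 nM Eu-anti-His antibody and Alexa647 BET-inhibitor probe (100 nM for BDI, 30 nM for BDII) in pH 6.0 phosphate buffer, 2% DMSO, compound 50 μM-0.85 nM; 1 h at RT, TR-FRET read. IC50 by 4-parameter fit, Ki from probe Kd and concentration.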

Assay [3] addresses T2, BRD4 (BDII_E352-M457) (Homo sapiens, UniProt O60885).
T2 construct: made in house
As to the kind of experiment: TR-FRET bromodomain binding assay, BRD4 second bromodomain. The conditions noted are these: His-tagged BD2, Alexa647-labeled probe 30 nM; Ki calculated from IC50. A digest of the protocol:
as §1

The structures appear in SMILES notation.

Take `Cc1[nH]c(-c2ccccc2NC[C@H]2CC[C@H](N)CC2)cc1C(N)=O` [Example 49, 5-(2-{[(trans-4-aminocyclohexyl)methyl]amino}phenyl)-2-methyl-1H-pyrrole-3-carboxamide]: in assay [1], the EC50 is > 10000 nM. In addition, the values for the Ki in assay [2] and in assay [3] were 313 nM and 5600 nM, respectively.
For `Cc1[nH]c(-c2ccccc2NC(=O)Cc2ccccc2)cc1C(N)=O` [Example 76, 2-methyl-5-{2-[(phenylacetyl)amino]phenyl}-1H-pyrrole-3-carboxamide], in assay [1], the EC50 is 13400 nM. Besides, the inhibition constant Ki is 4500 nM in assay [2] and 2980 nM in assay [3].
Consider `COc1cc(-c2cc(C(N)=O)c(C)[nH]2)cc(OC)c1OC` [Example 149, 2-methyl-5-(3,4,5-trimethoxyphenyl)-1H-pyrrole-3-carboxamide], for which, in assay [1], the EC50 was 2320 nM. In addition, the Ki is 884 nM in assay [2] and 3880 nM in assay [3].
As to `Cc1[nH]c(-c2ccccc2NC2C3CC4CC(C3)CC2C4)cc1C(N)=O` (stereo not shown) [Example 72, 2-methyl-5-{2-[tricyclo[3.3.1.1^3,7]dec-2-ylamino]phenyl}-1H-pyrrole-3-carboxamide], the EC50 in assay [1] was 167 nM. Further, the figures for the Ki in assay [2] and in assay [3] were 78.1 nM and 416 nM, respectively.
Turning to `Cc1[nH]c(-c2ccccc2NCc2cccs2)cc1C(N)=O` [Example 38, 2-methyl-5-{2-[(thiophen-2-ylmethyl)amino]phenyl}-1H-pyrrole-3-carboxamide], the EC50 in assay [1] came out at 3800 nM. Also, the inhibition constant Ki is 622 nM in assay [2] and 1140 nM in assay [3].
For `Cc1[nH]c(-c2ccccc2NC2CCCCC2F)cc1C(N)=O` (stereo not shown) [Example 75, 5-{2-[(2-fluorocyclohexyl)amino]phenyl}-2-methyl-1H-pyrrole-3-carboxamide], the EC50 in assay [1] was found to be 433 nM. Moreover, the inhibitory constant (Ki) is 37.6 nM in assay [2] and 225 nM in assay [3].
Consider `Cc1[nH]c(-c2ccccc2Oc2ccc3cc[nH]c3c2)cc1C(N)=O` [Example 118, 5-[2-(1H-indol-6-yloxy)phenyl]-2-methyl-1H-pyrrole-3-carboxamide], for which, in assay [1], the EC50 is 1320 nM. In addition, the Ki in assay [2] is 529 nM; in assay [3] it was 1730 nM.
As for `Cc1[nH]c(-c2ccccc2NCc2cccc(N)c2)cc1C(N)=O` [Example 53, 5-{2-[(3-aminobenzyl)amino]phenyl}-2-methyl-1H-pyrrole-3-carboxamide], the EC50 in assay [1] was 4170 nM. For the same molecule, the Ki was 659 nM in assay [2] and 3190 nM in assay [3].
Consider `Cc1[nH]c(-c2ccccc2NCC2CCN(C(=O)OC(C)(C)C)C2)cc1C(N)=O` (stereo not shown) [Example 40, tert-butyl 3-({[2-(4-carbamoyl-5-methyl-1H-pyrrol-2-yl)phenyl]amino}methyl)pyrrolidine-1-carboxylate], for which the EC50 in assay [1] was > 10000 nM. The figures for the Ki in assay [2] and in assay [3] were 212 nM and 5580 nM, respectively.
As to `Cc1[nH]c(-c2ccccc2Cc2ccccc2)cc1C(N)=O` [Example 148, 5-(2-benzylphenyl)-2-methyl-1H-pyrrole-3-carboxamide], the EC50 in assay [1] stood at 4320 nM. Moreover, the figures for the Ki in assay [2] and in assay [3] were 355 nM and 605 nM, respectively.
Consider `Cc1[nH]c(-c2ccccc2NC2CCc3ccccc32)cc1C(N)=O` (stereo not shown) [Example 67, 5-[2-(2,3-dihydro-1H-inden-1-ylamino)phenyl]-2-methyl-1H-pyrrole-3-carboxamide], for which the EC50 in assay [1] is > 3000 nM. For the same molecule, the inhibition constant (Ki) in assay [2] is 452 nM; in assay [3], 810 nM.
With `Cc1[nH]c(-c2ccccc2NC2CCOC2)cc1C(N)=O` (stereo not shown) [Example 63, 2-methyl-5-[2-(tetrahydrofuran-3-ylamino)phenyl]-1H-pyrrole-3-carboxamide], the EC50 in assay [1] came to 2460 nM. The figures for the Ki in assay [2] and in assay [3] were 352 nM and 6900 nM, respectively.
Regarding `Cc1[nH]c(-c2ccccc2Oc2cccnc2)cc1C(N)=O` [Example 126, 2-methyl-5-[2-(pyridin-3-yloxy)phenyl]-1H-pyrrole-3-carboxamide], in assay [1], the EC50 was found to be 1300 nM. Besides, the Ki was 83.4 nM in assay [2] and 1140 nM in assay [3].
In the case of `Cc1[nH]c(-c2ccccc2Br)cc1C(N)=O` [Example 115, 5-(2-bromophenyl)-2-methyl-1H-pyrrole-3-carboxamide], the figures for the Ki in assay [2] and in assay [3] were 1850 nM and 7120 nM, respectively.
Taken in the same sequence, the figures for `Cc1[nH]c(-c2ccccc2Nc2ccccc2)cc1C(N)=O` [Example 77, 2-methyl-5-[2-(phenylamino)phenyl]-1H-pyrrole-3-carboxamide] were 172 nM and 983 nM.
Take `Cc1[nH]c(-c2cccc(N)c2)cc1C(N)=O` [Example 4, 5-(3-aminophenyl)-2-methyl-1H-pyrrole-3-carboxamide]: the Ki in assay [2] is 5190 nM; in assay [3], 4440 nM.
As for `Cc1n[nH]c(C)c1-c1ccc(-c2cc(C(N)=O)c(C)[nH]2)cc1` [Example 112, 5-[4-(3,5-dimethyl-1H-pyrazol-4-yl)phenyl]-2-methyl-1H-pyrrole-3-carboxamide], the Ki in assay [2] is 5430 nM; in assay [3], 4310 nM.
As to `Cc1[nH]c(-c2ccc(-c3cccc(C(=O)NCc4ccco4)c3)cc2)cc1C(N)=O` [Example 106, 5-{3′-[(furan-2-ylmethyl)carbamoyl]biphenyl-4-yl}-2-methyl-1H-pyrrole-3-carboxamide], the Ki is 6010 nM in assay [2] and 4870 nM in assay [3].
With `Cc1[nH]c(-c2cccc(-c3cccnc3)c2)cc1C(N)=O` [Example 154, 2-methyl-5-[3-(pyridin-3-yl)phenyl]-1H-pyrrole-3-carboxamide], the values for the Ki in assay [2] and in assay [3] were 2990 nM and 7120 nM, respectively.
For the molecule `Cc1[nH]c(-c2ccccc2NS(=O)(=O)C2CCCCC2)cc1C(N)=O` [Example 79, 5-{2-[(cyclohexylsulfonyl)amino]phenyl}-2-methyl-1H-pyrrole-3-carboxamide], the inhibition constant (Ki) in assay [2] is 904 nM; in assay [3] it was 2650 nM.
With `Cc1[nH]c(-c2ccccc2Oc2ccc(Oc3ccccc3)cc2)cc1C(N)=O` [Example 122, 2-methyl-5-[2-(4-phenoxyphenoxy)phenyl]-1H-pyrrole-3-carboxamide], the Ki in assay [2] is 1960 nM; in assay [3], 7040 nM.
On to `Cc1ccc(CNc2ccccc2-c2cc(C(N)=O)c(C)[nH]2)cc1` [Example 29, 2-methyl-5-{2-[(4-methylbenzyl)amino]phenyl}-1H-pyrrole-3-carboxamide], for which the values for the Ki in assay [2] and in assay [3] were 2770 nM and 4410 nM, respectively.
Turning to `Cc1[nH]c(-c2cccc([N+](=O)[O-])c2)cc1C(N)=O` [Example 3, 2-methyl-5-(3-nitrophenyl)-1H-pyrrole-3-carboxamide], the inhibition constant Ki in assay [2] is 2330 nM; in assay [3], 7200 nM.
In the case of `Cc1ccccc1CNc1ccccc1-c1cc(C(N)=O)c(C)[nH]1` [Example 24, 2-methyl-5-{2-[(2-methylbenzyl)amino]phenyl}-1H-pyrrole-3-carboxamide], the Ki in assay [2] was 1060 nM; in assay [3], 1190 nM.
For the molecule `Cc1[nH]c(-c2ccccc2Oc2ccccc2)cc1C(N)=O` [Example 89, 2-methyl-5-(2-phenoxyphenyl)-1H-pyrrole-3-carboxamide], the figures for the inhibition constant Ki in assay [2] and in assay [3] were 122 nM and 351 nM, respectively.
For `Cc1[nH]c(-c2ccccc2Oc2ccc(C#N)cc2)cc1C(N)=O` [Example 123, 5-[2-(4-cyanophenoxy)phenyl]-2-methyl-1H-pyrrole-3-carboxamide], the Ki is 1970 nM in assay [2] and 12600 nM in assay [3].
For `Cc1[nH]c(-c2ccccc2NCC2CCCCC2)cc1C(N)=O` [Example 36, 5-{2-[(cyclohexylmethyl)amino]phenyl}-2-methyl-1H-pyrrole-3-carboxamide], the Ki in assay [2] was 521 nM; in assay [3], 1160 nM.
Turning to `Cc1[nH]c(-c2ccccc2NS(=O)(=O)c2ccccc2)cc1C(N)=O` [Example 78, 2-methyl-5-{2-[(phenylsulfonyl)amino]phenyl}-1H-pyrrole-3-carboxamide], the figures for the Ki in assay [2] and in assay [3] were 3990 nM and 712 nM, respectively.
On to `Cc1[nH]c(-c2cccc3[nH]cnc23)cc1C(N)=O` [Example 163, 5-(1H-benzimidazol-4-yl)-2-methyl-1H-pyrrole-3-carboxamide], for which the Ki in assay [2] was 912 nM; in assay [3] it was 2810 nM.
In the same order, the values of `CCOC(=O)CCN(Cc1ccccc1)C(=O)c1cc(-c2ccc(-c3c(C)noc3C)cc2)[nH]c1C` [Example 96, ethyl N-benzyl-N-({5-[4-(3,5-dimethyl-1,2-oxazol-4-yl)phenyl]-2-methyl-1H-pyrrol-3-yl}carbonyl)-beta-alaninate] are 3190 nM and 21500 nM.
